Several values for one entry are separate records, joined by “and”; a condition that tells them apart may be missing. Identical values can stand only once.
Legend:
[1] = target: p38/MK2 (Homo sapiens (Human), UniProt Q16539); test: p38α/MK2 cascade assay (phosphorylation of Hsp27 peptide, Caliper LabChip 3000); format: biochemical; details: activated p38α 20 pM, His6-MK2 1 nM, Hsp27 peptide 1 μM, MgATP 10 μM; two values per cell
Protocol: P38 Inhibitory Potency and P38/MK2 Substrate Selectivity: The novel, MK2 substrate-selective inhibitory mechanism of compounds is evaluated in enzyme assays comparing inhibitor potency in blocking p38/MK2 versus p38/PRAK induced phosphorylation of an HSP-27 derived peptide substrate. The ability of compounds to inhibit activated phospho-p38α is evaluated using a p38α/MK2 and a p38α/PRAK cascade assay format. […] Activation of MK2 or PRAK by p38α is quantitated by measuring the phosphorylation of a fluorescently-labeled, MK2 specific peptide substrate, Hsp27 peptide ([…]). The phosphorylation of the Hsp27 peptide is quantified using the Caliper LabChip 3000. Kinase reactions is carried out in a 384-well plate (Matrical, MP101-1-PP) in 20 mM HEPES pH 7.5, 10 mM MgCl2, 0.0005% Tween-20, 0.01% BSA, 1 mM DTT, and 2% DMSO. […] The p38α compound inhibitory potency is quantitated from dose-response IC50 values or Ki values from p38α/MK2 cascade assays while the substrate selectivity is calculated as a ratio of p38α/PRAK:p38α/MK2 IC50 values. Species compounds of Formula (I), described hereinabove, evaluated in this assay, are expected to provide a therapeutic benefit in the treatment of p38 kinase mediated diseases, such as autoimmune diseases and lymphoma.

[2] = target: p38/PRAK (Homo sapiens (Human), UniProt Q16539); test: p38α/PRAK cascade assay (phosphorylation of Hsp27 peptide, Caliper LabChip 3000); format: biochemical; details: activated p38α 20 pM, GST-PRAK 1 nM, Hsp27 peptide 1 μM, MgATP 10 μM; two values per cell
Sequence of p38/PRAK (Q16539 whole entry): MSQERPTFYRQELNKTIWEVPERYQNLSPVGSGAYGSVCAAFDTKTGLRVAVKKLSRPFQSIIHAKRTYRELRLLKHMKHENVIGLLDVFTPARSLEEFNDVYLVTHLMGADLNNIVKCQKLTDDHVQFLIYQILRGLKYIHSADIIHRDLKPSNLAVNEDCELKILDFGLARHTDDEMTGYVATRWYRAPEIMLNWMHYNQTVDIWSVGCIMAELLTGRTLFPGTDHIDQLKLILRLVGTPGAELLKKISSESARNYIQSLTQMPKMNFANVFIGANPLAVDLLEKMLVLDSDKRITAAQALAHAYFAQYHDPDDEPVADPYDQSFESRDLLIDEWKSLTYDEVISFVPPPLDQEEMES
Protocol: P38 Inhibitory Potency and P38/MK2 Substrate Selectivity: The novel, MK2 substrate-selective inhibitory mechanism of compounds is evaluated in enzyme assays comparing inhibitor potency in blocking p38/MK2 versus p38/PRAK induced phosphorylation of an HSP-27 derived peptide substrate. The ability of compounds to inhibit activated phospho-p38α is evaluated using a p38α/MK2 and a p38α/PRAK cascade assay format. The kinase activity of p38α is determined by its ability to phosphorylate GST-MK2 or GST-PRAK. Activation of MK2 or PRAK by p38α is quantitated by measuring the phosphorylation of a fluorescently-labeled, MK2 specific peptide substrate, Hsp27 peptide ([…]). The phosphorylation of the Hsp27 peptide is quantified using the Caliper LabChip 3000. Kinase reactions is carried out in a 384-well plate (Matrical, MP101-1-PP) in 20 mM HEPES pH 7.5, 10 mM MgCl2, 0.0005% Tween-20, 0.01% BSA, 1 mM DTT, and 2% DMSO. […] The p38α compound inhibitory potency is quantitated from dose-response IC50 values or Ki values from p38α/MK2 cascade assays while the substrate selectivity is calculated as a ratio of p38α/PRAK:p38α/MK2 IC50 values. Species compounds of Formula (I), described hereinabove, evaluated in this assay, are expected to provide a therapeutic benefit in the treatment of p38 kinase mediated diseases, such as autoimmune diseases and lymphoma.

Sequence of p38/MK2 (Q16539 whole entry): as above
Sequence of p38/MK2 (P49137 whole entry partner): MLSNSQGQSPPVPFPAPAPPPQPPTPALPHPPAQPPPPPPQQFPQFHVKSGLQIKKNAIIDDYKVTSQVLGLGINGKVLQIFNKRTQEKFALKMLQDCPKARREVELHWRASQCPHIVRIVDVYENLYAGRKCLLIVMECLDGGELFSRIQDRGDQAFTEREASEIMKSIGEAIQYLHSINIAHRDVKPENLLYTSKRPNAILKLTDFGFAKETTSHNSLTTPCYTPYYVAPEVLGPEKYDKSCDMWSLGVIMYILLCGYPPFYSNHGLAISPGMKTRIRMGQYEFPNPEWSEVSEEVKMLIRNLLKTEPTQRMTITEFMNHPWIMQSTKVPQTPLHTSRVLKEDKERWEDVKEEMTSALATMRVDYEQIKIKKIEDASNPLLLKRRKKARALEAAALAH

IC50 [1]	IC50 [2]	SMILES
6.4 nM and 7.3 nM	138 nM and 144 nM	Cc1cnc(-c2ccnc(C(C)(C)O)n2)cc1-n1c(C)cc(OCc2ccc(F)cc2F)c(Cl)c1=O [Example 284, 3-chloro-4-((2,4-difluorobenzyl)oxy)-2′-(2-(2-hydroxypropan-2-yl)pyrimidin-4-yl)-5′,6-dimethyl-2H-[1,4′-bipyridin]-2-one]
18 nM and 26 nM	121 nM and 210 nM	Cc1cnc(-c2ccnc(C(C)(C)C)n2)cc1-n1c(C)cc(OCc2ccc(F)cc2F)c(Cl)c1=O [Example 285, 2′-(2-(tert-butyl)pyrimidin-4-yl)-3-chloro-4-((2,4-difluorobenzyl)oxy)-5′,6-dimethyl-2H-[1,4′-bipyridin]-2-one]

Reference: patent US9365546B2, “Substituted pyridinone-pyridinyl compounds” (CONFLUENCE LIFE SCIENCES INC., priority 2010, dated 2016)
